Experimental data: US9222928B2, “Biphenol ether compounds as markers for liquid hydrocarbons and other fuels and oils” (Dow Global Technologies LLC, priority 2011, dated 2015)

melting point: 33 to 35 °C
Compound: CCCCCCCCCCCCOc1ccccc1-c1ccccc1OCCCCCCCCCCCC [BDD-BBPh, 2,2′-Bis(dodecyloxy)-1,1′-biphenyl]
